These are literature values, as cited in patent US9040513B2, “Process for preparing platinum-carbene complexes” (CENTRE NATIONAL DE LA RECHERCHE SCIENTIFIQUE, priority 2010, dated 2015).

The target of the data set is integrin αvβ3 (Homo sapiens, UniProt P05106+P06756). As to conditions: background statement.
Sequence of integrin αvβ3 (P06756 31-889 limits assumed): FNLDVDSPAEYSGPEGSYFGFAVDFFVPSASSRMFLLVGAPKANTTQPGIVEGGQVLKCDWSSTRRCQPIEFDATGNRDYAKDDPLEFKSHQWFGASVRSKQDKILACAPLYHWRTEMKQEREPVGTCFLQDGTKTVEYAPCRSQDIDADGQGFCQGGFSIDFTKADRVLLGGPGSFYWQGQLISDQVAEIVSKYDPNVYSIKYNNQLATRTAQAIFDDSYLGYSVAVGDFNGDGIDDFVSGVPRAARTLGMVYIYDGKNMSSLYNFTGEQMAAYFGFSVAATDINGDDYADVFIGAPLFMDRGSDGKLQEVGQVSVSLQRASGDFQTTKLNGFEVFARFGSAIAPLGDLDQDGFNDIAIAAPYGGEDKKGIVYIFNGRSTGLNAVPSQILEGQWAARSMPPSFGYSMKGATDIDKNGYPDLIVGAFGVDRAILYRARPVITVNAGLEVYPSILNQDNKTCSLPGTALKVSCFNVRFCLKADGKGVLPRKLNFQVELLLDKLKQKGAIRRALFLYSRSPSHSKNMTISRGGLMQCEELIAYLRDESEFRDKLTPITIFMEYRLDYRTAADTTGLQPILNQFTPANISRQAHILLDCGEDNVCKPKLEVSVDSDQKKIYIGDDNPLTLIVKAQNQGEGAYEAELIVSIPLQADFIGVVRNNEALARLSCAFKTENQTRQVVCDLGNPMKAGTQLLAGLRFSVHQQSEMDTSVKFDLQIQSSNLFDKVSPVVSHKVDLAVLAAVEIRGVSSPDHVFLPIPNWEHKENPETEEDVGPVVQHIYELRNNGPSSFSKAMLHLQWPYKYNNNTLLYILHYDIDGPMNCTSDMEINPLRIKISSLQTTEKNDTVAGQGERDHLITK
Sequence of integrin αvβ3 (P06756 891-1048 partner limits assumed): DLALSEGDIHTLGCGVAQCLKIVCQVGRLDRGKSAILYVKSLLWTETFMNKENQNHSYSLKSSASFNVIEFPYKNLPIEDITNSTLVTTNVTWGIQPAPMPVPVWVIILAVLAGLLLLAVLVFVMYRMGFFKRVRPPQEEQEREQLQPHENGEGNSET
Sequence of integrin αvβ3 (P05106 27-788): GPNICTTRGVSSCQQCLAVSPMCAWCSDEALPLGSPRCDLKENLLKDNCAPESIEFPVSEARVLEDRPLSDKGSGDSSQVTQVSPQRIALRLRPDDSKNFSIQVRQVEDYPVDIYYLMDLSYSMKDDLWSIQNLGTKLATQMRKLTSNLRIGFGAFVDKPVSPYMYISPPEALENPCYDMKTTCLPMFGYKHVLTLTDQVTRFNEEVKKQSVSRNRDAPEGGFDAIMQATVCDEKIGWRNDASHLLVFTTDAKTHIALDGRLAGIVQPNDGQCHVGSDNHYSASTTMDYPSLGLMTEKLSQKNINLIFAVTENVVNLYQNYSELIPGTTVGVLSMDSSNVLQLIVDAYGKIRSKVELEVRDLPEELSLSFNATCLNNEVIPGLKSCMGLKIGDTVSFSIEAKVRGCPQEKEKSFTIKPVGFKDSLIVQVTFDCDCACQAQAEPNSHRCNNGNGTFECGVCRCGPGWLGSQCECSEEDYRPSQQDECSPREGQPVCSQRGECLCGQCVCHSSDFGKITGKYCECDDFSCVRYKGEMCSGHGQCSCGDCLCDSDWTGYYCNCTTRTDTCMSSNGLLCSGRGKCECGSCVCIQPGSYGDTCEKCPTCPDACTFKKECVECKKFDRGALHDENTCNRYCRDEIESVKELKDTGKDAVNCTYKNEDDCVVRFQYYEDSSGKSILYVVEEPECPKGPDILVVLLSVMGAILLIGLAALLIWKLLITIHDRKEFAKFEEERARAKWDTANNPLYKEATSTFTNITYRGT

For cyclo(RGDfK), the “affinity for integrin αvβ3” value is on record as “high affinity”.
